Data on three molecules can be found in ChEMBL document CHEMBL3046388, “Antifungal and insecticidal activities of daphnodorins A, B and C” (1987).

Holding throughout (format): functional
One assay relates to Tetranychus urticae. Put plainly: Insecticidal activity against adult and eggs of Tetranychus urticae (two-spotted spider mite) assessed as mortality at 500 ppm sprayed onto organism at 25 to 27 degC measured after 5 days. Particulars: 120 h.
Assay [1] concerns Pyricularia oryzae. Briefly: Antifungal activity against Magnaporthe oryzae inoculated in compound treated Oryza sativa leaves assessed as protective value at 27 degC at 50 ppm by spraying method.
Another assay deals with Botrytis cinerea. Briefly: Antifungal activity against Botryotinia fuckeliana inoculated in compound treated Pisum sativum var. arvense POIL. leaves assessed as protective value at 27 degC at 500 ppm by spraying method.
Another assay relates to Callosobruchus chinensis. Briefly: Insecticidal activity against adult Callosobruchus chinensis in compound treated ingenmame leaves assessed as mortality at 500 ppm at 25 to 27 degC measured after 5 days. To be noted: 120 h.
The next assay has as its system Spodoptera litura. Briefly: Insecticidal activity against third-instar larvae Spodoptera litura in compound treated cabbage leaves assessed as mortality at 500 ppm at 25 to 27 degC measured after 5 days by leaf dip method. To be noted: foliar, 120 h.
Another assay has as its system Puccinia recondita. Briefly: Antifungal activity against Puccinia recondita inoculated in compound treated Triticum aestivum leaves assessed as protective value at 27 degC at 500 ppm by spraying method.
The test system of another assay is Rhizoctonia solani. Briefly: Antifungal activity against Rhizoctonia solani inoculated in compound treated Oryza sativa leaves assessed as protective value at 27 degC at 500 ppm by spraying method.
For a further assay, the system named is Phytophthora infestans. Put plainly: Antifungal activity against Phytophthora infestans inoculated in compound treated Lycopersicon esculentum MILL, leaves assessed as protective value at 27 degC at 500 ppm by spraying method.
Assay [2] deals with Pyricularia oryzae. Put plainly: Antifungal activity against Magnaporthe oryzae inoculated in compound treated Oryza sativa leaves assessed as protective value at 27 degC at 10 ppm by spraying method.
A further assay deals with Nilaparvata lugens. Put plainly: Insecticidal activity against third-instar larvae of Nilaparvata lugens (brown planthopper) in compound treated Oriza sativa stem assessed as mortality at 500 ppm at 25 to 27 degC measured after 5 days by stem dip method. To be noted: 120 h.
Assay [3] has as its system Pyricularia oryzae. Briefly: Antifungal activity against Magnaporthe oryzae inoculated in compound treated Oryza sativa leaves assessed as protective value at 27 degC at 200 ppm by spraying method.
A further assay deals with Blumeria graminis. Briefly: Antifungal activity against Blumeria graminis inoculated in compound treated Triticum aestivum leaves assessed as protective value at 27 degC at 500 ppm by spraying method.
For assay [4], the system named is Pyricularia oryzae. Briefly: Antifungal activity against Magnaporthe oryzae inoculated in compound treated Oryza sativa leaves assessed as protective value at 27 degC at 500 ppm by spraying method.
In assay [5] the test system is Pyricularia oryzae. Briefly: Antifungal activity against Magnaporthe oryzae inoculated in compound treated Oryza sativa leaves assessed as residual effect on leaves at 27 degC at 500 ppm by spraying method.

Structures are written as SMILES.

The mortality is the percentage killed. On to `O=C1c2c(O)cc(O)cc2O[C@]12c1c(cc(O)c3c1O[C@H](c1ccc(O)cc1)CC3)O[C@H]2c1ccc(O)cc1` [DAPHNODORIN C], for which the mortality at 500 ppm was 11% in the assay with Tetranychus urticae, 10% in the assay with Callosobruchus chinensis, 10% in the assay with Spodoptera litura and 0% in the assay with Nilaparvata lugens. In addition, the Activity in the assay on Pyricularia oryzae [1] is given as 69%; in the assay on Botrytis cinerea it was 0%; in the assay on Puccinia recondita, 0%; in the assay with Rhizoctonia solani, 0%; in the assay on Phytophthora infestans it was 0%; in the assay on Pyricularia oryzae [2], 40%. Besides, the Activity turned out to be 89% in the assay with Pyricularia oryzae [3], 0% in the assay with Blumeria graminis, 90% in the assay on Pyricularia oryzae [4] and 40% with Pyricularia oryzae [5].
As for `O=C(c1c(O)cc(O)cc1O)c1c(-c2ccc(O)cc2)oc2cc(O)c3c(c12)O[C@H](c1ccc(O)cc1)[C@@H](O)C3` [DAPHNODORIN B], the mortality at 500 ppm in the assay on Tetranychus urticae was 45%; in the assay on Callosobruchus chinensis, 30%; with Spodoptera litura, 30%; in the assay with Nilaparvata lugens, 0%. Moreover, the Activity came out at 0% in the assay with Botrytis cinerea; 0% in the assay with Puccinia recondita; 0% with Rhizoctonia solani; 0% with Phytophthora infestans; 0% in the assay on Blumeria graminis; 79% with Pyricularia oryzae [4].
For the molecule `O=C(c1c(O)cc(O)cc1O)c1c(-c2ccc(O)cc2)oc2cc(O)c3c(c12)O[C@H](c1ccc(O)cc1)CC3` [DAPHNODORIN A], the mortality at 500 ppm in the assay on Tetranychus urticae was determined as 30%; in the assay on Callosobruchus chinensis it was 0%; in the assay with Spodoptera litura, 20%; with Nilaparvata lugens, 10%. For the same molecule, the Activity amounted to 83% in the assay on Pyricularia oryzae [1]; 0% in the assay on Botrytis cinerea; 0% in the assay with Puccinia recondita; 0% with Rhizoctonia solani; 0% in the assay on Phytophthora infestans; 58% in the assay on Pyricularia oryzae [2]. In addition, the Activity in the assay with Pyricularia oryzae [3] is 93%; in the assay with Blumeria graminis, 0%; with Pyricularia oryzae [4], 95%; with Pyricularia oryzae [5], 48%.
